Results taken from US7705016B2, “Regulation of food intake by modulation of long-chain fatty acyl-CoA levels in the hypothalamus” (Albert Einstein College of Medicine of Yeshiva University, priority 2003, dated 2010).
“And” between values parts separate entries of the source, which are not always exact repeats. Equal entries are not always repeated. “Also recorded” adds a separate entry of the source.

How the values were obtained:
[1] = tested on: male Sprague-Dawley (S-D) rats; assay: Feeding behavior after ICV oleic acid bolus; format: in vivo, rat; conditions: for decrease in food intake compared with pre-injection basal levels: SC animals
Source text: Animals and Experimental Design. Ten week-old male Sprague-Dawley (S-D) rats (Charles River Breeding Laboratories, Inc., Wilmington, Mass.) were housed in individual cages and subjected to a standard light dark cycle (0600-1800/1800-0600). At 14 days before the in vivo studies, all rats received implantations of ICV catheters by stereotaxic surgery as previously described (36). Rats were allowed to recover completely before initiation of all in vivo studies. Animals were fed a standard chow (SC, cat. no. 5001, Purina Mills Ltd, with 59% calories provided by carbohydrate, 28% by protein and 12% by fat, 3.3 kcal/g), a high sucrose (HS; animals were given free access to a 20% sucrose solution in addition to their standard chow diet), or a highly palatable high fat diet (HF, cat. no. 9389; Purina Mills Ltd., with 45% calories provided by carbohydrate, 22% by protein and 33% by fat, 5.32 kcal/g) which was designed by the supplementation of the SC diet with 10% lard. The lard contained 2% myristic acid, 24% palmitic acid, 13% stearic acid, 46% oleic acid, and 12% linoleic acid. The total composition of fats in the HF diet was 5.2% saturated, 6.2% monounsaturated, and 2.7% polyunsaturated fat by weight. The SC diet contained 1%, 1.5%, and 1.6% of saturated, monounsaturated, and polyunsaturated fats by weight, respectively. Five groups of animals ere included in the feeding and metabolic studies (described below) after three days on the following diet regimens (Table 2): 1) SC ad libitum (SC; ˜80 kcal/day); 2) HS ad libitum (HS; ˜95 kcal/day); 3) HF ad libitum (HF140; ˜140 kcal/day); 4) HF calorie restricted (HF55; ˜55 kcal/day); and 5) HF pair-fed to SC(HF80; ˜80 kcal/day). Central Delivery of OA. OA was complexed with the polymer hydroxypropyl-3-cyclodextrin (HPB, CTD Inc). […] OA was solubilized in 45% HPB to a final concentration of 17 mM. The HPB-OA solution was diluted in artificial cerebral spinal fluid (aCSF) to the appropriate concentration used for each ICV injections (30 or 300 nmol/5 μl). HPB alone at a similar concentration as in the OA studies was used in all vehicle control studies. Feeding Behavior Studies. This experimental protocol was designed to examine the acute effect of ICV OA on food intake in three experimental groups fed a standard chow (SC), a high sucrose diet (HS95) and a high fat diet (HF140). SC and HF140 animals were allowed to eat their diets ad libitum. HS animals were given free access to a 20% sucrose solution in addition to the standard chow diet for three days. Following three days of ad libitum feeding in all groups, on study day 0 (FIG. 5a), rats were given an ICV bolus injection of either […] of OA (30 nmol) or vehicle at a rate of 1 μl/min using a gas-tight syringe (Hamilton Corp) one hour before the start of the dark cycle. Food intake was measured at the same time daily for three days post-injection.

[2] = tested on: male Sprague-Dawley (S-D) rats; assay: ICV OA infusion with pancreatic-insulin clamp (insulin action studies); format: in vivo, rat; conditions: for effect on GP: over-fed rats (HF140)
Source text: Insulin action studies. The experimental protocol herein was designed to examine the effect of nutritional status on the ability of long-chain fatty acids in the hypothalamus to modulate carbohydrate metabolism. Rats (n=43) were implanted with chronic catheters as previously described (Liu et al., 1998). After full recovery from the catheterization, animals were randomized into three groups HF55 (n=16), HF80 (n=9), or HF140 (n=18) and were allowed to consume their allocated diet for three days. On the night prior to the in vivo study all rats received 55 kcal to ensure a similar nutritional state at the start of the metabolic studies. All studies were performed in awake, unstressed, chronically catheterized rats. At t=−120 (FIG. 7a), a primed-continuous infusion of ICV OA (total dose 30- or 300-nmol) or Vehicle (HBP 10% in aCSF) was initiated and maintained throughout the duration of the study. Plasma glucose was measured periodically initiating at the onset (t=−120) of the ICV infusion and lasting throughout the duration of the study. Plasma samples for determination of insulin, leptin, and non-esterified fatty acid concentration were obtained at the onset (t=−120) and at 30 min intervals during the study. At t=0, and a primed-continuous infusion of HPLC-purified [3-3H]-glucose (New England Nuclear, Boston, Mass.; 40 μCi bolus, 0.4 μCi/min for duration of the study) was initiated and maintained for the last four hours of the study. Samples for determination of ^3H-glucose specific activity were obtained at 10-minute intervals throughout infusions. Finally, at t=120, a pancreatic-insulin clamp study was initiated and maintained for two hours. During this procedure, a primed-continuous infusion of regular insulin (1 mU/kg/min) was administered, and a variable infusion of 25% glucose solution was started at t=120 and periodically adjusted to clamp the plasma glucose concentration at ˜7 mM. The rate of insulin infusion was designed to replace the plasma insulin concentration at ˜the average basal levels in post-absorptive rats. In order to control for possible effects of the ICV injections on endocrine pancreas, somatostatin (3 μg/kg/min) was coinfused with insulin to inhibit endogenous insulin secretion. At the end of the in vivo studies, rats were anesthetized (pentobarbital 55 mg/kg body weight, intravenously) and tissue samples were freeze-clamped in situ with aluminum tongs pre-cooled in liquid nitrogen. All tissue samples were stored at −80° C. for subsequent analysis.
Analytical Procedures and Calculations. Plasma glucose was measured by the glucose oxidase method (Glucose Analyzer II, Beckman Instruments, Inc. Fullerton, Calif., USA). Plasma insulin and leptin levels were determined by RIA (rat Leptin RIA kit, Linco Research Inc., St. Charles, Mo.). Serum adiponectin was measured by RIA (Linco Research, Inc., St. Charles, Mo.). Plasma non-esterified fatty acid concentrations were determined an enzymatic method by an automated kit according to the manufacturer's specifications (Waco Pure Chemical Industries. Osaka, Japan). The radioactivity of [3-^3H]glucose in plasma was measured from supernatants of Ba (OH)2 and from ZnSO4 precipitates (Somogyi procedure), after each was evaporated to dryness for the removal of tritiated water. […]

rats = rats fed standard chow, prolonged (16 h) fasting; cited from earlier work

## CCCCCCCC/C=C\CCCCCCCC(=O)O [OA, oleic acid]
[1]; HF140, ICV OA 30 nmol, first day
  decrease in daily food intake: 11%
[1]; HF140, ICV OA 30 nmol, second day
  decrease in daily food intake: −2%
[1]; HS95, ICV OA 30 nmol, first day
  decrease in daily food intake: 21%
[1]; HS95, ICV OA 30 nmol, second day
  decrease in daily food intake: 17%
[1]; ICV OA 30 nmol, first day
  decrease in food intake compared with pre-injection basal levels: 48%
[1]; ICV OA 30 nmol, second day
  decrease in food intake compared with pre-injection basal levels: 52%
[1]; all groups (SC, HS95, HF140)
  return to baseline food intake after the OA injection: 3 days
[1]; high fat chow
  effect on feeding behavior: failed to significantly alter feeding behavior
[1]; high sucrose chow
  effect on feeding behavior: failed to significantly alter feeding behavior
[1]; standard chow, ICV OA 30 nmol
  duration of anorexia: 48 h
[1]; standard chow, for 2 days
  decrease in food intake: ~50%
[2]; HF55, ICV OA 30 nmol
  inhibition of GP, decrease from basal: 71%
[2]; HF80, ICV OA 30 nmol
  GIR required to maintain euglycemia: 4.64 mg/kg/min and ~9 mg/kg/min
[2]; ICV OA 30 nmol
  effect on GP: failed to significantly alter GP
[2]; ICV OA 300 nmol
  effect on GP: failed to significantly decrease GP; also recorded: failed to significantly alter GP
[2]; pancreatic-insulin clamp, any of the experimental groups
  rate of glucose disappearance (Rd): did not significantly modify; also recorded: not significantly affected
rats
  decrease in hypothalamic NPY mRNA compared with ICV vehicle: ~50%
